The results in this text go back to patent US11802120B2, “Fused cyclic urea derivatives as CRHR2 antagonist” (RaQualia Pharma Inc., priority 2018, dated 2023).

Structures are written as SMILES.

In assay [1] the target is T1, human CRHR2-alpha (Homo sapiens, UniProt Q13324).
T1 sequence (Q13324 1-411): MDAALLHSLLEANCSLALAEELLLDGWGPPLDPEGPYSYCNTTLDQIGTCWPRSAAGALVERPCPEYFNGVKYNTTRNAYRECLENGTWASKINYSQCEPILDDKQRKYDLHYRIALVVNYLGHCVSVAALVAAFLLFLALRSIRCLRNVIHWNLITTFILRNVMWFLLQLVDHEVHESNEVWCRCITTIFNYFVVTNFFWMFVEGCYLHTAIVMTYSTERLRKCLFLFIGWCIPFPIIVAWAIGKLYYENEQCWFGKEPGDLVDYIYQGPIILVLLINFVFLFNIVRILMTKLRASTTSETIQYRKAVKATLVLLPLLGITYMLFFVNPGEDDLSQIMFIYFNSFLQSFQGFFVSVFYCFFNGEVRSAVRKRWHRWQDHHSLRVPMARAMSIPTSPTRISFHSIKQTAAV
Description: cAMP functional assay for human CRHR2 (LANCE Ultra cAMP, TR-FRET). It is filed as cell-based. The note with it: CHO-K1 cells expressing human CRHR2-alpha, agonist human urocortin2 at EC80, cAMP; read-out: IC50 against CRHR2. The method, boiled down:
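CHO-K1 cells stably expressing each receptor, serum-starved and cryopreserved, were preincubated with compound 30 min at 25° C in HBSS buffer with 0.5 mM IBMX, pH 7.4, then stimulated 30 min with EC80 agonist (urocortin2 for CRHR2, CRF for CRHR1). cAMP read by TR-FRET; IC50 from percent-inhibition curves.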

The target in assay [2] is T2, human CRHR1-beta (Homo sapiens, UniProt P34998).
T2 sequence (P34998 24-444 isoform P34998-1 limits assumed): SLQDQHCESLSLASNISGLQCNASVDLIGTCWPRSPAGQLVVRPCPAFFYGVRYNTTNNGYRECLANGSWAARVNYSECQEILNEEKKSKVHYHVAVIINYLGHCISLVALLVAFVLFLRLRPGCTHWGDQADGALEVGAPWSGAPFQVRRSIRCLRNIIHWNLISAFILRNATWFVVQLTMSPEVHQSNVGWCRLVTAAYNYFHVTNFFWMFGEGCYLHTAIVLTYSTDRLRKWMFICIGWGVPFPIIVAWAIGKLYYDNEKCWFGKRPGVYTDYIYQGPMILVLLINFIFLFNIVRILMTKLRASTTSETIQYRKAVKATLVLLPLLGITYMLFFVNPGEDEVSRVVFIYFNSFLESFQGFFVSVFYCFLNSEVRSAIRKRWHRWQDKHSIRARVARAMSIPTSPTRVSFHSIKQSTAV
In words: cAMP functional assay for human CRHR1 (LANCE Ultra cAMP, TR-FRET). It is filed as cell-based. The note with it: CHO-K1 cells expressing human CRHR1-beta, agonist CRF at EC80, cAMP; read-out: IC50 against CRHR1. As to the method:
cAMP functional assay for human CRHR1 and CRHR2
The ability of the compounds of this invention to inhibit either CRHR2 or CRHR1 is assessed by 3′,5′-cyclic adenosine monophosphate (cAMP) production in cells using the LANCE Ultra cAMP assay kit (ParkinElmer), which are designed based on the homogeneous time-resolved fluorescence resonance energy transfer (TR-FRET) immunoassay.
CHO-K1 (Chinese hamster ovary) cells stably expressing either human CRHR2-alpha (DiscoveRX, Cat. 95-0048C2) or human CRHR1-beta (DiscoveRX, Cat. 95-0047C2) are grown in HAM's F12 media supplemented with 10% fetal bovine serum (FBS), 100 units/mL penicillin, 100 microg/mL hygromycin and 0.5 microg/mL geneticin at 37° C. in 5% CO2 humidified incubator to 80% confluence. After 7 hours starvation treatment in culture media containing 0.1% FBS, the cells are washed with Hanks balanced salt solution (HBSS) and cryopreserved.
For cAMP assay, frozen cells are thawed and washed with HBSS, followed by resuspended in assay buffer (HBSS containing 0.1% bovine serum albumin, 0.5 mM isobutylmethylxanthine and 5 mM Hepes, pH 7.4) at the appropriate concentration for the assay. The cell suspensions are plated on 384-well microplates (Greiner Bio-One) at a density of 4,000 cells per well. After preincubating the cells with various concentrations of the compounds for 30 min at 25° C., an assay buffer containing EC80 concentration of each agonist is added and the cells are incubated for 30 min at 25° C. Human urocortin2 (Peptide Institute) and CRF (Peptide Institute) are used as agonists for CRHR2 and CRHR1, respectively. For the termination of assay, europium-labeled cAMP tracer and ULight (registered trademark) dye labeled cAMP antibodies, both prepared with Lance-Ultra cAMP detection reagent (Perkin Elmer) are added in the plate and incubate for 60 min at 25° C. After incubation, TR-FRET signal is detected by EnVision plate reader (PerkinElmer). The IC50 values for compounds are calculated from dose-response curves by fitting the percent inhibition using XLfit (ID Business Solutions).

For the compound `CNC(=O)c1ccc(-n2c(=O)n(C[C@H]3CC[C@H](NC(=O)c4cc(Cl)cnc4C)CC3)c3ccccc32)cn1` [Example 63, 5-(3-(((1r,4r)-4-(5-chloro-2-methylnicotinamido)cyclohexyl)methyl)-2-oxo-2,3-dihydro-1H-benzo[d]imidazol-1-yl)-N-methylpicolinamide], the IC50 was less than 300 nM in assay [1] and less than 1000 nM in assay [2].

For `Cc1ncc(Cl)cc1C(=O)N[C@H]1CC[C@H](Cn2c(=O)n(-c3ccc(OCCN(C)C)cc3)c3ccccc32)CC1` [Example 73, 5-chloro-N-((1r,4r)-4-((3-(4-(2-(dimethylamino)ethoxy)phenyl)-2-oxo-2,3-dihydro-1H-benzo[d]imidazol-1-yl)methyl)cyclo-hexyl)-2-methylnicotinamide], the IC50 in assay [2] is less than 1000 nM.

Take `CCNc1ccc(-n2c(=O)n(C[C@H]3CC[C@H](NC(=O)c4cc(Cl)cnc4C)CC3)c3ccccc32)cn1` [Example 92, 5-chloro-N-((1r,4r)-4-((3-(6-(ethylamino)pyridin-3-yl)-2-oxo-2,3-dihydro-1H-benzo [d]imidazol-1-yl)methyl)cyclohexyl)-2-methylnico-tinamide]: the IC50 in assay [1] is less than 300 nM; in assay [2], less than 1000 nM.

In the case of `CC(=O)c1ccc(-n2c(=O)n(C[C@H]3CC[C@H](NC(=O)c4cc(Cl)cnc4C)CC3)c3ccccc32)cc1` [Example 18, N((1r,4r)-4-((3-(4-acetylphenyl)-2-oxo-2,3-dihydro-1H-benzo[d]imidazol-1-yl)methyl)cyclohexyl)-5-chloro-2-methylnicotinamide], the figures for the IC50 in assay [1] and in assay [2] were less than 300 nM and less than 1000 nM, respectively.

As for `Cc1ncc(Cl)cc1C(=O)N[C@H]1CC[C@H](Cn2c(=O)n(-c3ccc(N4CC[C@H](O)C4)nc3)c3ccccc32)CC1` [Example 80, 5-chloro-N-((1S,4r)-4-((3-(6-((S)-3-hydroxypyrrolidin-1-yl)pyridin-3-yl)-2-oxo-2,3-dihydro-1H-benzo[d]imidazol-1-yl)methyl)cyclohexyl)-2-methylnicotinamide], the IC50 in assay [2] is less than 1000 nM.

On to `COc1ccccc1-n1c(=O)n(C[C@H]2CC[C@H](NC(=O)c3cc(Cl)cnc3C)CC2)c2ccccc21` [Example 34, 5-chloro-N-((1r,4r)-4-((3-(2-methoxyphenyl)-2-oxo-2,3-dihydro-1H-benzo[d]imidazol-1-yl)methyl)cyclohexyl)-2-methylnicotinamide], for which the IC50 in assay [1] is less than 300 nM; in assay [2] it was less than 1000 nM.

Regarding `Cc1ncc(Cl)cc1C(=O)N[C@H]1CC[C@H](Cn2c(=O)n(-c3ccc(N4CCN(C)CC4)nn3)c3ccccc32)CC1` [Example 68, 5-chloro-2-methyl-N-((1r,4r)-4-((3-(6-(4-methylpiperazin-1-yl)pyridazin-3-yl)-2-oxo-2,3-dihydro-1H-benzo[d]imidazol-1-yl)methyl)cyclohexyl)nicotinamide], in assay [2], the IC50 is less than 1000 nM.

Take `Cc1ncc(Cl)cc1C(=O)N[C@H]1CC[C@H](Cn2c(=O)n(-c3ccc(OCCN(C)C)nc3)c3c(C)cccc32)CC1` [Example 59, 5-chloro-N-((1r,4r)-4-((3-(6-(2-(dimethylamino)ethoxy)pyridin-3-yl)-4-methyl-2-oxo-2,3-dihydro-1H-benzo[d]imidazol-1-yl)methyl)cyclohexyl)-2-methylnicotinamide]: the IC50 in assay [2] was less than 1000 nM.

On to `Cc1ncc(Cl)cc1C(=O)N[C@H]1CC[C@H](CN2C(=O)N(c3ccccc3)Cc3ccccc32)CC1` [Example 136, 5-chloro-2-methyl-N-((1r,4r)-4-((2-oxo-3-phenyl-3,4-dihydro-quinazolin-1(2H)-yl)methyl)cyclohexyl)nicotinamide], for which the IC50 in assay [2] is less than 1000 nM.

As to `COc1ncc(-n2c(=O)n(C[C@H]3CC[C@H](NC(=O)c4cc(Cl)cnc4C)CC3)c3ccccc32)cn1` [Example 43, 5-chloro-N-((1r,4r)-4-((3-(2-methoxypyrimidin-5-yl)-2-oxo-2,3-dihydro-1H-benzo[d]imidazol-1-yl)methyl)cyclohexyl)-2-methylnicotinamide], in assay [2], the IC50 is less than 1000 nM.

With `Cc1ncc(Cl)cc1C(=O)N[C@H]1CC[C@H](Cn2c(=O)n(-c3ccc(CO)cc3)c3ccccc32)CC1` [Example 21, 5-chloro-N-((1r,4r)-4-((3-(4-(hydroxymethyl)phenyl)-2-oxo-2,3-dihydro-1H-benzo[d]imidazol-1-yl)methyl)cyclohexyl)-2-methylnicotinamide], the IC50 in assay [2] was less than 1000 nM.

As for `Cc1ncc(Cl)cc1C(=O)N[C@H]1CC[C@H](Cn2c(=O)n(CC3CCOCC3)c3ccccc32)CC1` [Example 3, 5-chloro-2-methyl-N-((1r,4r)-4-((2-oxo-3-((tetrahydro-2H-pyran-4-yl)methyl)-2,3-dihydro-1H-benzo[d]imidazol-1-yl)methyl)cyclohexyl)nicotinamide], the IC50 in assay [2] was less than 1000 nM.

On to `Cc1ncc(Cl)cc1C(=O)N[C@H]1CC[C@H](Cn2c(=O)n(-c3ccc(OCCO)nn3)c3ccccc32)CC1` [Example 69, 5-chloro-N-((1r,4r)-4-((3-(6-(2-hydroxyethoxy)pyridazin-3-yl)-2-oxo-2,3-dihydro-1H-benzo[d]imidazol-1-yl)methyl)cyclohexyl)-2-methylnicotinamide], for which the IC50 in assay [2] is less than 1000 nM.

As for `Cc1ncc(Cl)cc1C(=O)N[C@H]1CC[C@H](Cn2c(=O)n(-c3ccc(N4CC[C@@H](O)C4)nc3)c3ccccc32)CC1` [Example 81, 5-chloro-N-((1R,4r)-4-((3-(6-((R)-3-hydroxypyrrolidin-1-yl)pyridin-3-yl)-2-oxo-2,3-dihydro-1H-benzo[d]imidazol-1-yl)methyl)cyclohexyl)-2-methylnicotinamide], the IC50 in assay [2] is less than 1000 nM.

Take `Cc1ccc(-n2c(=O)n(C[C@H]3CC[C@H](NC(=O)c4cc(Cl)cnc4C)CC3)c3ccccc32)cn1` [Example 31, 5-chloro-2-methyl-N-((1r,4r)-4-((3-(6-methylpyridin-3-yl)-2-oxo-2,3-dihydro-1H-benzo[d]imidazol-1-yl)methyl)cyclohexyl)nicotinamide]: the IC50 in assay [2] was less than 1000 nM.

For the compound `Cc1ncc(Cl)cc1C(=O)N[C@H]1CC[C@H](Cn2c(=O)n(-c3ccc(N4CCN(CCO)CC4)nc3)c3ccccc32)CC1` [Example 65, 5-chloro-N-((1r,4r)-4-((3-(6-(4-(2-hydroxyethyl)piperazin-1-yl)pyridin-3-yl)-2-oxo-2,3-dihydro-1H-benzo[d]imidazol-1-yl)methyl)cyclohexyl)-2-methylnicotinamide], the half-inhibitory concentration (IC50) in assay [2] is less than 1000 nM.

For `Cc1ncc(Cl)cc1C(=O)N[C@H]1CC[C@H](Cn2c(=O)n(-c3ccc(OC[C@H]4CNCCO4)nc3)c3ccccc32)CC1` [Example 74, 5-chloro-2-methyl-N-((1R,4r)-4-((3-(6-((R)-morpholin-2-ylmethoxy)pyridin-3-yl)-2-oxo-2,3-dihydro-1H-benzo[d]imidazol-1-yl)methyl)cyclohexyl)nicotinamide], the IC50 in assay [2] was less than 1000 nM.

For the compound `Cc1ncc(Cl)cc1C(=O)N[C@H]1CC[C@H](Cn2c(=O)n(-c3ccc(N4CC[C@H](N(C)C)C4)nc3)c3ccccc32)CC1` [Example 61, 5-chloro-N-((1S,4r)-4-((3-(6-((S)-3-(dimethylamino)pyrrolidin-1-yl)pyridin-3-yl)-2-oxo-2,3-dihydro-1H-benzo[d]imidazol-1-yl)methyl)cyclohexyl)-2-methylnicotinamide], the IC50 in assay [2] is less than 1000 nM.
